# Source: US20230130823A1, “PROCESS FOR THE PRODUCTION OF ANTITUMOUR PHARMACEUTICAL COMPOSITIONS USING PUSH-PULL BUTADIENES, COMPOUNDS AND USES THEREOF” (ANHANGUERA EDUCACIONAL PARTICIPAÇÕES S/A, priority 2019, published 2023)
# “And” between values parts separate entries of the source, which are not always exact repeats. Equal entries are not always repeated.
# Experiments:
# Colo205 [1] = assay: Determination of apoptotic cells (subG1), Colo205, flow cytometry; type: cell-based; settings: sub-diploid DNA content
# Text: Determination of Apoptotic Cells (subG1)-Colo205
# In this experiment, the proportion of apoptotic cells was identified, that is, cells showing DNA content below normal (sub-diploid) in flow cytometry testing.
# BxPC3 = assay: In vitro cytotoxicity, BxPC3 pancreas line; type: cell-based; settings: Homo sapiens, BXPC-3; BxPC3, pancreas; read-out: IC50
# [2] = test system: lines of human carcinoma tested; assay: In vitro cytotoxicity against the panel of human carcinoma lines; settings: tumor cell lines of human carcinoma tested
# HT-29 = assay: In vitro cytotoxicity, HT-29 colon line; type: cell-based; settings: Homo sapiens; HT-29, colon; read-out: IC50
# tumor cells line Colo205 = assay: Colo205 cell count; type: cell-based; settings: compared to cells treated with culture medium only
# Method: The compounds were tested for their ability to reduce the number of cells in the tumor, compared to cells treated with culture medium only. In Table 4, the results obtained are shown.
# Colo205 [3] = assay: In vitro cytotoxicity, Colo205 colon line; type: cell-based; settings: Homo sapiens, COLO 205; Colo205, colon; read-out: IC50
# Colo205 [4] = assay: Analysis of the cell cycle phases, Colo205; type: cell-based; settings: for Cell cycle phase (%) G2M: G2/M phase
# Text: The compounds of this family were also studied for the distribution of the population of tumor cells in the different phases of the cell cycle: quiescent cells, non-proliferating (G1/G0 phase), which present DNA/RNA synthesis capacity (S phase) and cell division cells (G2/M phase).
# SW620 = assay: In vitro cytotoxicity, SW620 colon line; type: cell-based; settings: Homo sapiens, SW-620; SW620, colon; read-out: IC50
# CaCo2 = assay: In vitro cytotoxicity, CaCo2 colon line; type: cell-based; settings: Homo sapiens, Caco-2; CaCo2, colon; read-out: IC50
# CRO2B = assay: In vitro cytotoxicity, CRO2B carcinoid line; type: cell-based; settings: Homo sapiens, carcinoid, read-out: IC50
# MIAP2 = assay: In vitro cytotoxicity, MIAP2 pancreas line; type: cell-based; settings: Homo sapiens; MIAP2, pancreas; read-out: IC50
# PANC1 = assay: In vitro cytotoxicity, PANC1 pancreas line; type: cell-based; settings: Homo sapiens, PANC-1; PANC1, pancreas; read-out: IC50
# [5] = test system: murine melanoma cells B16F10; assay: MTT cytotoxicity in B16F10 melanoma cells; type: cell-based; settings: for IC50: Mus musculus, B16-F10, B16F10 melanoma, 24 hours of culture, MTT, read-out: CI50% (the source's name)
# Method: The tumor line of murine melanoma B16F10 was donated by the Ludwig-Switzerland Institute. Adherent cell suspensions of B16F10 cells were obtained for all experimental procedures by treating culture flasks with trypsin 0.2% for 5 minutes and inactivated with 10% fetal bovine serum. The detached cells were centrifuged twice, resuspended in supplemented RPMI-1640 medium. The count was performed in Malassez chamber, and the cell concentration was adjusted in 5×10^5 cells/ml, in RPMI-1640 culture medium supplemented with 10% fetal bovine serum and 7 ug polymyxin-B (Sigma Chemical Company, St Louis Mo.-USA).
# Cell viability was determined by the Trypan Blue exclusion test, being greater than 95% of viable cells. The cells were grown in plates with 96 well plate flat bottoms (Corning), at a concentration of 2×10^5 cells, maintained for 24 hours in a CO2 oven at 37° C. After this period, the plates were centrifuged for 5 minutes, at 2000 rpm at 4° C., the supernatant discarded and added different concentrations of the compounds, diluted in RPMI-1640 culture medium, supplemented and increased by 7 μg of Polymyxin-B (Sigma Chemical Company). After treatment with the various diluted compounds in complete culture medium, the cells were incubated with 0.5 mg/mL of MTT reactive.
# The cell viability test was performed to verify the effect of the various compounds on the various concentrations previously established: on the lines of tumor cells B16F10 and normal human fibroblasts. The MTT method consists of a cell viability test that measures the activity of mitochondrial dehydrogenase. MTT is a colorimetric method based on the capacity of living cells to reduce salt 3-(4,5-di-methylazole-2-IL)-2,5-diphenyl tetrazolium bromide in the formazan product (Mosmann, 1983). After the cells plating (concentration of 1×10^4 per well of the culture plate) in RPMI-1640 medium and 10% SFB medium, they were maintained at 37° C. for periods of 24, 48, 72 and 96 hours. Four hours before the set time was completed, MTT 20 μL (Sigma) was added (final concentration of […]). The plates were kept in the oven for the remaining four hours. After the stipulated time, 180 μL of the supernatant were removed from each well and then added 150 μL of dimethyl sulfoxide (Sigma) homogenizing well for the complete dissolution of the salt crystals formed by the mitochondrial metabolism resulting in a staining.
# The 96-well plate was read by the spectrophotometer (Spectra MAX-190) using the wavelength of 570 nm. The results were analyzed by absorbance of each well. The percentage of viability was obtained using the following formula: [(Absorbance of treated cells/Absorbance of untreated cells)×100]. The experiments were carried out in quadruplicate.
# The samples of the compounds obtained by synthesis chemistry were diluted in DMSO solution at the final concentration of 10%.
# [6] = test system: 4T1 (murine mammary carcinoma); assay: Cytotoxicity, 4T1 cells; type: cell-based; settings: Mus musculus, read-out: CI50% tumor cells
# [7] = test system: MCF-7 (human mammary adenocarcinoma); assay: Cytotoxicity, MCF-7 cells; type: cell-based; settings: MCF7, read-out: CI50% tumor cells
# [8] = test system: SCC9 (squamous-cell carcinoma of the oral cavity); assay: Cytotoxicity, SCC9 cells; type: cell-based; settings: Homo sapiens, SCC-9, read-out: CI50% tumor cells
# [9] = test system: HUVEC (Normal human endothelial cell); assay: Cytotoxicity, HUVEC normal cells
compound,measurement,setting,value
"CC(=O)c1ccc(OCC=C(C)C)cc1 [Compound 1, 4-(3-methylbut-2-enyl-oxyi)acetophenone]","Percentage of cells (apoptotic, subG1)",Colo205 [1],5.2 ± 0.566%
same,IC50,BxPC3,725 µM
same,cytotoxic activity (in words),[2],showed no cytotoxic activity
same,IC50,HT-29,455 µM
same,Relative number of cells (% ± standard deviation),tumor cells line Colo205,70.2 ± 0.339%
same,IC50,Colo205 [3],1030 µM
same,Cell cycle phase (%) G1/G0,Colo205 [4],48.0 ± 2.54%
same,Cell cycle phase (%) G2M,Colo205 [4],5.0 ± 2.26%
same,Cell cycle phase (%) S,Colo205 [4],47.0 ± 0.28%
same,IC50,SW620,980 µM
same,IC50,CaCo2,759 µM
same,IC50,CRO2B,666 µM
same,IC50,MIAP2,823 µM
same,IC50,PANC1,759 µM
"CC(=O)c1ccccc1C(=O)Oc1ccccc1 [Compound 4, 2-Acetyl Benzoate of Phenyl]",cytotoxic activity (in words),[2],inactive
"O=C(Oc1ccc(/C(Cl)=C/C=C/[N+](=O)[O-])cc1)c1ccccc1 [Compound 16, 4-(1-chloro-4-nitro-buta-1,3-dienyl)phenyl Benzoate]",IC50,[5],34.9 µg/mL and 106 µM
"CC(=O)C(=C/C=C(\Cl)c1ccc(I)cc1)C(C)=O [Compound 18, 3-acetyl-6-chloro-6-(4-iodophenyl)-hexa-3,5-diene-2-ona]",IC50,[6],3.71 µM
same,IC50,[7],0.666 µM
same,times more active,[5]; compared with the acetylacetone-derived benzoate isomers,~7 times
same,IC50,[8],10.9 µM
CC(C)=CCOc1ccc(C(C)=C(C#N)C#N)cc1 [Compound 2],"Percentage of cells (apoptotic, subG1)",Colo205 [1],35.7 ± 1.485%
same,IC50,BxPC3,160 µM
same,cytotoxic activity (in words),[2],exhibited a better cytotoxic activity
same,IC50,HT-29,92 µM
same,Relative number of cells (% ± standard deviation),tumor cells line Colo205,12.7 ± 0.339%
same,IC50,Colo205 [3],149 µM
same,Cell cycle phase (%) G1/G0,Colo205 [4],90.0 ± 0.91%
same,Cell cycle phase (%) G2M,Colo205 [4],0.8 ± 0.42%
same,Cell cycle phase (%) S,Colo205 [4],9.15 ± 0.49%
same,IC50,SW620,134 µM
same,IC50,CaCo2,163 µM
same,IC50,CRO2B,149 µM
same,IC50,MIAP2,155 µM
same,IC50,PANC1,177 µM
CCSC(=CC(=C(C#N)C#N)c1ccc(OCC=C(C)C)cc1)SCC [Compound 3],IC50,BxPC3,24.2 µM
same,cytotoxic activity (in words),[2],potent cytotoxic activity
same,IC50,HT-29,3.9 µM
same,IC50,Colo205 [3],14.3 µM
same,IC50,SW620,11.7 µM
same,IC50,CaCo2,8.07 µM
same,IC50,CRO2B,6.51 µM
same,IC50,MIAP2,3.9 µM
same,IC50,PANC1,50 µM
"O=C(Oc1ccccc1/C(Cl)=C/C=C/[N+](=O)[O-])c1ccccc1 [Compound 7, 2-(1-chloro-4-nitro-buta-1,3-dienyl)phenyl Benzoate]",cytotoxic activity (in words),[2],little antitumor activity
same,activity relative to compound 6,"[5]; B16F10, compared with compound 6",almost ten times more active
same,IC50,[5],3.27 µg/mL and 9.93 µM
"COc1cc(/C=C/C(=O)/C=C/C=C(Cl)/C=C/c2ccc(OC)c(OC)c2)ccc1O [Compound 29, (1E,4E,6Z,8E)-7-chloro-1-(4-hydroxy-3-methoxyphenyl)-9-(3,4-dimethoxyphenyl)nona-1,4,6,8-tetraen-3-ona]",IC50,[6],8.27 µM
same,IC50,[7],0.701 µM
same,IC50,[8],9.22 µM
"N#CC(C#N)=C/C=C(\Cl)c1ccc(OC(=O)c2ccccc2)cc1 [Compound 14, 4-(1-chloro-4,4-dicyano-buta-1,3-dienyl)phenyl Benzoate]",IC50,[5],168 µg/mL
"COc1ccc(C(=O)/C(C#N)=C/C=C(\Cl)c2ccc(I)cc2)cc1OC [Compound 21, 5-chloro-2-(3,4-dimethoxy-benzoyl)-5-(4-iodine-phenyl)-penta-2,4-dienonitrile]",IC50,[6],6.44 µM
same,IC50,[7],0.293 µM
same,IC50,[8],0.858 µM
same,CI50% Normal cells,[9],16.4 µM
"O=CC=C(Cl)c1ccc(OC(=O)c2ccccc2)cc1OC(=O)c1ccccc1 [Compound 27, 3-Chloro-3-(2,4-benzoyloxy-phenyl)propenal]","Percentage of cells (apoptotic, subG1)",Colo205 [1],18.0 ± 0.354%
same,Relative number of cells (% ± standard deviation),tumor cells line Colo205,32.3 ± 1.017%
same,Cell cycle phase (%) G1/G0,Colo205 [4],54.2 ± 0.35%
same,Cell cycle phase (%) G2M,Colo205 [4],12.4 ± 0.63%
same,Cell cycle phase (%) S,Colo205 [4],33.4 ± 0.21%
